Test results: PMC7663272, “Discovery of Tricyclic Pyranochromenone as Novel Bruton’s Tyrosine Kinase Inhibitors with In Vivo Antirheumatic Activity” (International Journal of Molecular Sciences, 2020)

Assays:
[1] = test system: TNF-α production in LPS-stimulated THP-1 cells; assay: LPS-induced TNF-α release in THP-1 cells (ELISA); type: cell-based, human
Description: BTK plays a critical role in high-affinity IgE receptor (FcεRI) and B cell receptor (BCR) signaling, resulting in the release of proinflammatory cytokines. Therefore, BTK inhibitor treatment can reduce the production of both lymphoid and myeloid cytokines. […] We examined the cellular effects of compound 8 on the production of cytokines IL-6 and TNF-α in LPS-stimulated THP-1 cells. Following treatment with LPS alone or LPS and compound 8, the levels of cytokines secreted by THP-1 cells were assessed (Figure 5). LPS increased the output of proinflammatory cytokines.
THP-1 cells were obtained from the American Type Culture Collection (ATCC, Manassas, VA, USA). The cells were cultured in RPMI-1640 supplemented with 10% FBS, 1% P/S, and 0.05 mM 2-mercaptoethanol and maintained at 37 °C and 5% CO2 in a humidified incubator. Cytokine secretion (hIL-6 and TNF-α) in the culture supernatants of the THP-1 cells was measured using a human cytokine ELISA kit (Abcam). Differentiated THP-1 cells were treated with agents and LPS for 24 h, after which the cell culture media was centrifuged at 2000× g for 10 min to remove debris. Briefly, each sample (50 μL) or standard was mixed with the appropriate detection antibody and incubated for 1 h at room temperature on a plate shaker. […] Subsequently, 100 μL of stop solution was added to each well, and the optical density (OD) was measured at 450 nm. […]

[2] = biological target: T1, EGFR (Homo sapiens, UniProt P00533); assay: HotSpot kinase enzymatic assay, EGFR; type: biochemical
T1 construct: purchased Reaction Biology Corporation
Protocol: (§1) Therefore, efforts have focused on developing new compounds with good selectivity profiles. […] Compound 8 was selective against BTK. The biochemical activities of compound 8 differed among TEC family kinases. […] The inhibitory potential of compound 8 differed between members of the EGFR family. […] The inhibitory activity of compound 8 against JAK3 was also low.
(§2) Kinase enzymatic assays for BTK, BMX, TXK, TEC, ITK, EGFR, ERBB2, ERBB4, and JAK3 were performed at Reaction Biology Corporation (www.reactionbiology.com, Malvern, PA, USA) using the HotSpot assay platform. Briefly, specific kinase/substrate pairs and the required cofactors were prepared in a reaction buffer comprising 20 mM HEPES (pH 7.5), 10 mM MgCl2, 1 mM EGTA, 0.02% Brij35, 0.02 mg/mL BSA, 0.1 mM Na3VO4, 2 mM DTT, and 1% DMSO. The compounds were added to the reaction mixture and allowed to incubate. Approximately 20 min later, a mixture of ATP (Sigma-Aldrich, St. Louis, MO, USA) and ^33P ATP (PerkinElmer, Waltham, MA, USA) was added to the reaction mixture at a final concentration of 10 μM. The reactions were performed at room temperature for 120 min; subsequently, the reactions were spotted onto P81 ion exchange filter papers (Whatman Inc., Maidstone, UK). Any unbound phosphate was removed by thoroughly washing the filter papers with 0.75% phosphoric acid. […]

[3] = biological target: T2, CYP2C9 (Homo sapiens, UniProt P11712); assay: P450-Glo CYP inhibition assay, CYP2C9; type: in vitro ADME
T2 construct: purchased Promega V9790
Protocol: The potential for CYP450 inhibition (CYP1A2, 2C9, 2C19, 2D6, and […]) was assessed using Promega P450-Glo^TM CYP450 assay systems. Luciferin-ME served as the substrate for CYP1A2, and the inhibitor α-naphthoflavone was used as a positive control. Luciferin-H was used as the substrate for CYP2C9, and the inhibitor sulfaphenazole was used as a positive control. Luciferin-H EGE was selected as the substrate for CYP2C19, whereas the inhibitor amitriptyline served as a positive control. Luciferin-ME EGE was used as the substrate for CYP2D6, whereas the inhibitor quinidine served as a positive control. Luciferin-BE was used as the substrate for CYP3A4, whereas the inhibitor ketoconazole was used as a positive control. The assays were performed using the excitation and emission wavelengths recommended by the manufacturer. Briefly, a CYP enzyme and a P450-Glo™ substrate were combined in potassium phosphate (0.1 M KPO4) buffer, with or without a test compound of interest, and […]. The reaction was initiated by adding two volumes of 2 times concentrated NADPH regeneration system. […] Luminescence was subsequently measured using a Tecan Infinite M1000 PRO microplate reader (Tecan Group Ltd., Switzerland). The percent inhibition was calculated relative to that of the positive control at a fixed concentration. […]

[4] = biological target: T3, ERBB4 (Homo sapiens, UniProt Q15303); assay: HotSpot kinase enzymatic assay, ERBB4; type: biochemical
T3 construct: purchased Reaction Biology Corporation
Protocol: as §1, §2

T1 sequence (P00533 25-1210): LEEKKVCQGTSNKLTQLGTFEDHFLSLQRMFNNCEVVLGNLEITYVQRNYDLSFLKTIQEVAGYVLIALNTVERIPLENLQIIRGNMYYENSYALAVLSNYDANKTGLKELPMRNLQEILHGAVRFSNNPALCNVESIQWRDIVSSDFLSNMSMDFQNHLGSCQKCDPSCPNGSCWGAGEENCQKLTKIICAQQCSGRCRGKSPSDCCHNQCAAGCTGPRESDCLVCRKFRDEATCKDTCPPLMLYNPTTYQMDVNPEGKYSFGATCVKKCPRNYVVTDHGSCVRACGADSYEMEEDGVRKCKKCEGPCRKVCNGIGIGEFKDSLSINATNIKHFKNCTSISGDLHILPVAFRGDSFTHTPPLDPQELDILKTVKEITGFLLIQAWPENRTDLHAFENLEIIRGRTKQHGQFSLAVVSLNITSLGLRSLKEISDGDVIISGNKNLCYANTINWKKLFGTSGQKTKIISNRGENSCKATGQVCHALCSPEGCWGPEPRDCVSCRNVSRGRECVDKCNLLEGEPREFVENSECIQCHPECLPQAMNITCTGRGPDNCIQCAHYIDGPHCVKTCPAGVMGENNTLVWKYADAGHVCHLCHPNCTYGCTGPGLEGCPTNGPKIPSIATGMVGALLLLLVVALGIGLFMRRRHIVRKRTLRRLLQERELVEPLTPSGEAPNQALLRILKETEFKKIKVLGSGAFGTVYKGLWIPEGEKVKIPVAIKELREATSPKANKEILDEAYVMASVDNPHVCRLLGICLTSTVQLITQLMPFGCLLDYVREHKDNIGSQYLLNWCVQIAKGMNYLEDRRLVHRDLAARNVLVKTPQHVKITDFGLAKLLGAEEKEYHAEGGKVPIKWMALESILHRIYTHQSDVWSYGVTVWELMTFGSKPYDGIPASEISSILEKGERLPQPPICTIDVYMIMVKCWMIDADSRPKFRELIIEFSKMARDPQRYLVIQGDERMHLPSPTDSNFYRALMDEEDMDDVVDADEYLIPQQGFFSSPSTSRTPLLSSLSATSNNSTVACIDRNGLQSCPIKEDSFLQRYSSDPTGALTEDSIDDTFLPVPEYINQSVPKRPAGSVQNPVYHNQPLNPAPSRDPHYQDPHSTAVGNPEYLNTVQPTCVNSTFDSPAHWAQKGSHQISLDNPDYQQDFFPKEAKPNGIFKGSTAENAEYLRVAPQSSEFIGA
T2 sequence (P11712 whole entry): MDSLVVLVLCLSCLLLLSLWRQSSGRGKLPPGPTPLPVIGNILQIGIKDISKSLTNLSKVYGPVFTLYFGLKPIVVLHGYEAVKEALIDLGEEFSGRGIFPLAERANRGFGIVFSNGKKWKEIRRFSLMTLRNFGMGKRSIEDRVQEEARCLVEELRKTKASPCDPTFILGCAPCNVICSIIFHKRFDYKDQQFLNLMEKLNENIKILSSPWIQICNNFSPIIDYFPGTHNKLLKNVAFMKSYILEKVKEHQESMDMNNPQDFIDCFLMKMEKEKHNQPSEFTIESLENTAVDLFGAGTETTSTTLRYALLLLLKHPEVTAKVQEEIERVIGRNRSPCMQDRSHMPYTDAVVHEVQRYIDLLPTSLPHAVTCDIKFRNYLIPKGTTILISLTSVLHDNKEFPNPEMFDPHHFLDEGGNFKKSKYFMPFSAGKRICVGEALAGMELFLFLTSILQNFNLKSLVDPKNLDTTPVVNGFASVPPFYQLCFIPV
T3 sequence (Q15303 26-1308): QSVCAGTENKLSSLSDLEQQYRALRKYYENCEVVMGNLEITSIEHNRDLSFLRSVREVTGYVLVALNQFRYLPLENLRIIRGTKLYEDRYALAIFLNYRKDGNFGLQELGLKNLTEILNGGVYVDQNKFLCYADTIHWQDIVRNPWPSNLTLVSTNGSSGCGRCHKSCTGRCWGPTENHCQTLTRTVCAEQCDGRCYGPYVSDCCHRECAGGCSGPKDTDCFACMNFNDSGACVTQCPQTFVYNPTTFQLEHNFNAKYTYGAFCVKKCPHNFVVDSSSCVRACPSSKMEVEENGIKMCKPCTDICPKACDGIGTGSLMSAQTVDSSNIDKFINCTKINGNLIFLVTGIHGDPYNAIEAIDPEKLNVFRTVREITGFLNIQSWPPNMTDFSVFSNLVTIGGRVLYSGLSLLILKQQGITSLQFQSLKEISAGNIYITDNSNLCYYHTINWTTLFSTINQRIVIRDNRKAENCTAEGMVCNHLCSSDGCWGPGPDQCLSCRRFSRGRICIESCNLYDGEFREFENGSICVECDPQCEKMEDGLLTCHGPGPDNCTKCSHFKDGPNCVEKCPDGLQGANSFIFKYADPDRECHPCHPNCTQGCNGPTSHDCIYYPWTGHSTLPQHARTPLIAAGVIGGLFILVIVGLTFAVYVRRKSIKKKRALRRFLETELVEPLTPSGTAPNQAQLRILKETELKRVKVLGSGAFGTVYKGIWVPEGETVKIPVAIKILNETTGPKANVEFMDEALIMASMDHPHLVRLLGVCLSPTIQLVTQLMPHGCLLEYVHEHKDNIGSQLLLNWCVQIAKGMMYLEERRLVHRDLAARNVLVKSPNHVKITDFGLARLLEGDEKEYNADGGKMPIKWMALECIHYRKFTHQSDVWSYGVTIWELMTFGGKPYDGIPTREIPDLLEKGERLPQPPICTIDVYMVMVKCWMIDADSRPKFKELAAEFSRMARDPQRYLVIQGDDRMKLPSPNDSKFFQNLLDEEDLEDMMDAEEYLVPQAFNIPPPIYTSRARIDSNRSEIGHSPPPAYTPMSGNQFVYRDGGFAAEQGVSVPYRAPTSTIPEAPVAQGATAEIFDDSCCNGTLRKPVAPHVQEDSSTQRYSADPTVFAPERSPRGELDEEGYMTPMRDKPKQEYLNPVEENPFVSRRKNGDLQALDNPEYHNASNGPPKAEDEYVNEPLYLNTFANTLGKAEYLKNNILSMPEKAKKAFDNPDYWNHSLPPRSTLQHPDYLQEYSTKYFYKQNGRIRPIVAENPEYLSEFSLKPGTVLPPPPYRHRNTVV

SMILES: C=CC(=O)O[C@H]1Cc2cc3ccc(=O)oc3cc2OC1(C)C [Compound 8, (7S)-(+)-Acrylic acid, 8,8-dimethyl-2-oxo-6,7-dihydro-2H,8H-pyrano [3,2-g]chromen-7-yl ester]
- production of TNF-α ([1]; LPS-stimulated differentiated THP-1 cells, 24 h, ELISA): significantly and dose-dependently reduced
- inhibitory activity on TNF-α production at 10 μM, compared with ibrutinib ([1]; compound at 10 μM, ibrutinib at 2 μM): comparable with that of ibrutinib at 2 μM
- inhibitory activity against EGFR (in words) [2]: weak inhibitory activity
- inhibition at 10 µM ([2]; 10 µM, mean of two experiments): 32.9%
- CYP2C9 inhibition (in words) [3]: moderately inhibited
- CYP inhibition 2C9 ([3]; % inhibition of human CYP isozymes at 10 μM): 66.1%
- inhibitory activity against ERBB4 (in words) [4]: inactive
